≈ marks a conversion by molar mass, not a printed value. Where two headings read alike, the source gives them in different places.
Key:
[1] = biological target: T1, M. abscessus TrmD (Mycobacteroides abscessus, UniProt B1MDI3); experiment: biochemical; assay type: binding; settings: for fold improvement in affinity (decrease in Kd) over the parent compound: AW3 vs AW2, AW4 vs AW3, AW5 vs AW4; for LE (ligand efficiency): from M. abscessus TrmD Kd
[2] = biological target: T1, M. abscessus TrmD; experiment: TrmD methylation (methyltransferase) inhibition assay, UPLC readout; assay type: biochemical; settings: for IC50: 6.25 μM SAM, 0.1 μM TrmD, 6.25 μM tRNA ProUGG, 1 h room temperature
Experimental: Assays for quantifying TrmD methylation reactions were carried out in 20 μl reactions consisting of 6.25 μM SAM, 0.1 μM TrmD and 6.25 μM tRNA^ProUGG in the presence of 0–500 μM compounds in serial dilutions using assay buffer containing 50 mM Tris–HCl pH 7.5, 10 mM MgCl2, 24 mM NH4Cl, 5% DMSO and 1 mM DTT in nuclease free water. tRNA sequences were identified from the M. abscessus genome sequence using tRNAscan-SE algorithm, ([38],[39]). […]. The reactions were carried out for 1 h at room temperature followed by addition of 20 mM EDTA to stop the reactions. Each of the 20 μl samples were diluted ten-fold with the UPLC mobile phase solvent A (0.1% formic acid in water), centrifuged for 10 min at 13 000 g, to remove any precipitates, and the supernatant was aliquoted into 96-well plates. 40 μl samples were then injected into Acquity UPLC (Waters) T3 […] column and eluted using a gradient elution consisting of Mobile Phase A: 0.1% formic acid in water and mobile phase B: 0.1% formic acid in 100% methanol for 4 min. The absorbance was monitored using a photodiode array (PDA) detector (Waters) at wavelength range of ƛ: 220–500 nm. All reactions were carried out in triplicate. The blank corrected data were analyzed using Microsoft excel and non-linear regression analysis for IC50 determination were done using GraphPad prism version 7.00, GraphPad Software, La Jolla, CA, USA.

[3] = biological target: M. tuberculosis TrmD (Mycobacterium tuberculosis, UniProt P9WFY7); experiment: Isothermal titration calorimetry (ITC) with M. tuberculosis TrmD; assay type: binding
M. tuberculosis TrmD, sequence (P9WFY7 whole entry): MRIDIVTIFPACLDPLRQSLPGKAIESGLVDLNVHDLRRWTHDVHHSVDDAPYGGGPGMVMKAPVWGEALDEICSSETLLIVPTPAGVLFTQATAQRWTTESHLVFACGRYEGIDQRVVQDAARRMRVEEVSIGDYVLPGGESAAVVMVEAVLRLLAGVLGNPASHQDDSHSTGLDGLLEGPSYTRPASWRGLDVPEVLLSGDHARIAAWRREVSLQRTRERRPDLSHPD
Experimental: ITC experiments to quantify binding of ligands to TrmD were done as described in ([37]) using Malvern MicroCal iTC200 or Auto-iTC200 systems at 25°C. Titrations consisted of an initial injection (0.2 μl), discarded during data processing, followed by either 19 (2 μl) or 39 (1 μl) injections separated by intervals of 60–150 s duration. Protein was dialysed overnight at 4°C in storage buffer (M. abscessus TrmD: 50 mM HEPES pH 7.5, 500 mM NaCl, 5% glycerol; M. tuberculosis TrmD: 25 mM HEPES pH 7.5, 500 mM NaCl). Sample cell and syringe solutions were prepared using the same storage buffer, with a final DMSO concentration of 2–10% according to ligand solubility in the buffer. TrmD concentrations of either 33 or 100 μM were used, with ligand to protein concentration ratios ranging from 10 to 20:1. Control titrations without protein were also performed and subtracted from ligand to protein titrations. Titrations were fitted with Origin software (OriginLab, Northampton, MA, USA), using a one-site binding model with N fixed to 1 only for weakly binding ligands. Titrations were typically performed once (n = 1), with multiple isotherms obtained (n > 1) for key compounds of interest. Kd values are reported to two significant figures. Error provided by Origin software due to model fit is reported when n = 1, whereas standard deviation is reported when n > 1.

[4] = system: M. abscessus; experiment: MIC measurement, M. abscessus; assay type: cell-based, Mycobacterium abscessus ssp. abscessus (ATCC 19977); settings: Mycobacteroides abscessus, ATCC19977; ATCC 19977, Middlebrook 7H9 ADC, 37°C; read-out: Minimum inhibitory concentration (MIC) M. abscessus
[5] = system: M. tuberculosis H37Rv; experiment: MIC measurement, M. tuberculosis; assay type: cell-based; settings: Mycobacterium tuberculosis, 336 h, 7H9 base with DPPC, 2 weeks, 37°C, read-out: Minimum inhibitory concentration (MIC) M. tuberculosis
[6] = system: M. chelonae; experiment: MIC measurement, M. chelonae; assay type: cell-based; settings: Mycobacteroides chelonae; clinical isolate; read-out: Minimum inhibitory concentration (MIC) M. chelonae
[7] = system: M. fortuitum; experiment: MIC measurement, M. fortuitum; assay type: cell-based; settings: Mycolicibacterium fortuitum; clinical isolate; read-out: Minimum inhibitory concentration (MIC) M. fortuitum
[8] = system: M. gordonae; experiment: MIC measurement, M. gordonae; assay type: cell-based; settings: Mycobacterium gordonae; clinical isolate; read-out: Minimum inhibitory concentration (MIC) M. gordonae
[9] = system: M. terrae; experiment: MIC measurement, M. terrae; assay type: cell-based; settings: Mycolicibacter terrae; clinical isolate; read-out: Minimum inhibitory concentration (MIC) M. terrae
[10] = system: M. avium; experiment: MIC measurement, M. avium; assay type: cell-based; settings: Mycobacterium avium; clinical isolate; read-out: Minimum inhibitory concentration (MIC) M. avium
[11] = system: human macrophages; experiment: LDH release cytotoxicity assay; assay type: cell-based; settings: at or below a concentration of 150 μM
Text: Blood samples were donated by healthy volunteers who had undertaken informed consent in accordance with local Research Ethics Committee approval. Peripheral blood mononuclear cells were isolated from citrated peripheral blood samples by density gradient separation using Lympholyte (Cedarlane Labs), and subsequent CD14^+ positive selection using the MACS Miltenyi Biotec Human CD14 microbead protocol (Miltenyi Biotec). CD14^+ cells were differentiated into macrophages using recombinant human granulocyte-macrophage colony-stimulating factor (200 ng/ml GM-CSF) and recombinant human interferon gamma (50 ng/ml IFNγ) (Peprotech) in standard tissue culture DMEM media containing fetal calf serum, penicillin and streptomycin. […] At the given time points, supernatant was saved for cell cytotoxicity studies, and M. abscessus survival within the macrophages calculated by macrophage lysis in sterile water, and colony forming unit calculation on Columbia Blood Agar plates (VWR BDH).
Lactate dehydrogenase (LDH) was measured as a biomarker for cellular cytotoxicity using the Pierce LDH Cytotoxicity Assay Kit. Cell supernatant was measured at 2, 24 and 48 h post-infection according to the kit protocol.

[12] = system: M. abscessus-infected human macrophages; experiment: Macrophage infection study (CFU of intracellular M. abscessus); assay type: cell-based, Mycobacterium abscessus; settings: 25 μM compound, 48 h incubation
Text: Blood samples were donated by healthy volunteers who had undertaken informed consent in accordance with local Research Ethics Committee approval. Peripheral blood mononuclear cells were isolated from citrated peripheral blood samples by density gradient separation using Lympholyte (Cedarlane Labs), and subsequent CD14^+ positive selection using the MACS Miltenyi Biotec Human CD14 microbead protocol (Miltenyi Biotec). CD14^+ cells were differentiated into macrophages using recombinant human granulocyte-macrophage colony-stimulating factor (200 ng/ml GM-CSF) and recombinant human interferon gamma (50 ng/ml IFNγ) (Peprotech) in standard tissue culture DMEM media containing fetal calf serum, penicillin and streptomycin. Following removal of antibiotics, macrophages were infected at a multiplicity of infection of 10:1 with M. abscessus 19977 for 2 h, washed in sterile phosphate buffered saline, and then incubated in DMEM media with FCS and 25 μM of compound for 24 and 48 h. At the given time points, supernatant was saved for cell cytotoxicity studies, and M. abscessus survival within the macrophages calculated by macrophage lysis in sterile water, and colony forming unit calculation on Columbia Blood Agar plates (VWR BDH).

[13] = system: M. leprae maintained intracellularly in murine bone marrow macrophage; experiment: Intracellular M. leprae in murine bone marrow macrophages, radiorespirometry; assay type: cell-based; settings: Mycobacterium leprae, 168 h, AW7 at 6.2 μM, 7 days, read-out: inhibition of β-oxidation (14C-palmitic acid oxidation, radiorespirometry)
Experimental: Bone marrow cells were obtained aseptically from both femurs of female BALB/c mice and cultured on plastic cover slips in Dulbecco modified Eagle's medium (DMEM, Life Technologies, USA) supplemented with 10% (v/v) fetal calf serum (Life Technologies), 25 mM/l HEPES (Sigma, USA), 2 mM/l glutamine (Sigma, USA), 50 μg/ml ampicillin (Sigma, USA) and 10 ng/ml of recombinant murine macrophages colony stimulating factor (R&D Systems, USA) for 6–7 days at 37°C and 5% CO2. The cells were infected with freshly harvested nude mice foot pad derived live M. leprae at a multiplicity of infection (MOI) of 20:1 overnight at 33°C and then washed to remove extracellular bacteria. AW7 was added at different concentrations (100–6.25 μM) and the cells were incubated for 7 days at 33°C. Media only and rifampicin at 2.4 μM were used as negative and positive controls. […]
Metabolism of a suspension of M. leprae was measured by evaluating the oxidation of ^14C-palmitic acid to ^14CO2 by radiorespirometry as described previously ([45]). […] In the present study the seventh day cumulative counts per minute (CPM) were recorded and percentage inhibition of metabolism determined as compared to no drug control. Statistical significance between treatment groups and no drug control were determined by Student's t-test and P < 0.05 is considered as significant.

[14] = system: axenically-maintained M. leprae; experiment: M. leprae axenic culture, radiorespirometry; assay type: cell-based, Mycobacterium leprae; settings: 100-6.25 μM, 7 days, 33°C
Experimental: Freshly harvested nude mouse foot pad derived M. leprae were suspended in modified 7H12 medium, AW7 was added at different concentrations (100–6.25 μM) and were incubated for 7 days at 33°C. Media only and rifampin (Sigma, USA) at 2.4 μM were used as negative and positive controls. Following incubation aliquots of AW7 treated and control M. leprae were processed for radiorespirometry (RR) as described previously ([43]).
Metabolism of a suspension of M. leprae was measured by evaluating the oxidation of ^14C-palmitic acid to ^14CO2 by radiorespirometry as described previously ([45]). Levels of captured ^14CO2 is proportional to the rate of ^14C-palmitic acid oxidation and used as an indicator of M. leprae viability. In the present study the seventh day cumulative counts per minute (CPM) were recorded and percentage inhibition of metabolism determined as compared to no drug control. Statistical significance between treatment groups and no drug control were determined by Student's t-test and P < 0.05 is considered as significant.

[15] = biological target: T1, M. abscessus TrmD; experiment: CRISPR-dCas9 knockdown of trmD in M. abscessus (target engagement); settings: 25 μM AW7, doxycycline 1.5625-100 ng/ml, 72 h; effect not seen with yidC gRNA or empty vector
Text: The dCas9 encoding plasmid (pTetInt-dcas9-Km) and the second vector containing the sgRNA cassette (pGRNAz) were derived from the tetracycline inducible CRISPr Interference system of Choudhary et al. ([40]) and optimized for M. abscessus ATCC19977. The 20 nucleotides guides targeting yidC(MAB_4953c) and trmD(MAB_3226c) were annealed and cloned in between sphI and aclI of the pGRNAz. As a control the pGRNAz was left empty. The CRISPr-I containing strains were cultivated in Middlebrook 7H9 broth supplemented with 1× ADC, 0.05% tween80 and 0.5% glycerol, hygromycin 1 mg/ml and zeocin 300 μg/ml. The cultures were inoculated at 10^6CFU/ml from an exponentially grown pre-cultures. […] The OD600 was measured and the CFU counted at 72 h.

[16] = ITC, 25°C, M. abscessus TrmD, read-out: Kd

T1 sequence (B1MDI3 entry or part of it): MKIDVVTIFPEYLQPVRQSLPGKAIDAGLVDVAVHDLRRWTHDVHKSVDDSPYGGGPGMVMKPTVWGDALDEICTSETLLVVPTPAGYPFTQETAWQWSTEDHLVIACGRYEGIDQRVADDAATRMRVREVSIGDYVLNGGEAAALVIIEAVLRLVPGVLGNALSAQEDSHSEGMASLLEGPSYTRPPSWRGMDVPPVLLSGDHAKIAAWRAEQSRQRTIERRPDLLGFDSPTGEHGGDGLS

Compound	fold improvement in affinity (decrease in Kd) over the parent compound [1] [fold]	Kd [1, 16] [nM]	LE (ligand efficiency) [1] [kcal/ mol/ heavy atom]	IC50 [2] [nM]	MIC [4] [µM]	MIC [5] [µM]	also measured
N#Cc1c(N)n[nH]c1-c1ccc2ccn(Cc3ccccn3)c2c1 [AW3]	25	500 ± 140	0.36	310 ± 10	–	–	fold decrease in IC50 over the parent compound ([2]; AW3 vs AW2): 100 fold
COc1ccc(-c2cc(N)n[nH]2)cc1 [Fragment 23]	–	170000	0.37	–	–	–	–
Nc1cc(-c2ccc3ccn(Cc4ccccn4)c3c2)[nH]n1 [AW2]	–	12000 ± 1000	0.30	33000 ± 4000	–	–	–
CN1CCN(Cc2ccc(Cn3ccc4ccc(-c5[nH]nc(N)c5C#N)cc43)cc2)CC1 [AW7]	–	–	0.30	69 ± 7	50 (≈ 21.3 µg/mL)	6.3 (≈ 2.68 µg/mL)	Kd [1]: 73 ± 30 nM; Kd [3]: 330 nM; MIC [6]: 100 µM (≈ 42.6 µg/mL); MIC [7]: 100 µM (≈ 42.6 µg/mL); MIC [8]: 100 µM (≈ 42.6 µg/mL); MIC [9]: 25 µM (≈ 10.6 µg/mL); MIC [10]: 100 µM (≈ 42.6 µg/mL); cellular toxicity (LDH release) [11]: neither compound caused cellular toxicity; decrease in CFUs compared to the no drug control [12]: 95%; inhibition at 6.2 µM [13]: > 50%; inhibitory activity against axenic M. leprae (radiorespirometry) [14]: show inhibitory activity; sensitivity of M. abscessus to the compound on incremental silencing of TrmD [15]: progressively more sensitive to AW7
Nc1cc(-c2ccc3cc[nH]c3c2)[nH]n1 [AW1]	–	110000 ± 11000	0.36	230000 ± 29000	–	–	–
OB(O)c1ccc2cc[nH]c2c1 [Fragment 24]	–	260000	0.41	–	–	–	–
N#Cc1c(N)n[nH]c1-c1ccc2ccn(Cc3ccc(CN4CCCC4)cc3)c2c1 [AW5]	> 3	27 ± 4	0.34	30 ± 3	50 (≈ 19.8 µg/mL)	12.5 (≈ 4.96 µg/mL)	–
Nc1cc(-c2ccc3ccn(Cc4ccc(CN5CCCC5)cc4)c3c2)[nH]n1 [AW6]	–	–	0.31	1400 ± 100	50 (≈ 18.6 µg/mL)	6.3 (≈ 2.34 µg/mL)	Kd [1]: 490 ± 210 nM; Kd [3]: 900 nM; MIC [6]: 100 µM (≈ 37.1 µg/mL); MIC [7]: 100 µM (≈ 37.1 µg/mL); MIC [8]: 100 µM (≈ 37.1 µg/mL); MIC [9]: 100 µM (≈ 37.1 µg/mL); MIC [10]: 200 µM (≈ 74.3 µg/mL); cellular toxicity (LDH release) [11]: neither compound caused cellular toxicity; decrease in CFUs compared to the no drug control [12]: ~82%
N#Cc1c(N)n[nH]c1-c1ccc2ccn(Cc3ccc(CN4CCCC4)cn3)c2c1 [AW4]	5	92 ± 18	0.32	–	–	–	–

— PMC7641325, “Fragment-based discovery of a new class of inhibitors targeting mycobacterial tRNA modification” (Nucleic Acids Research, 2020)
